Each compound was assayed against Cav2.3 (Homo sapiens, UniProt Q15878) (assay: Human Cav2.3 channel calcium-influx assay). Conditions: HEK-293 T-Rex/Kir2.1 cells with inducible Cav2.3e-β4-α2δ1; Fluo8 fluorescence; 8-point dose response from 30 μM; no pluronic acid; read-out: Cav2.3 (pIC50) (converted).
Cav2.3, sequence (Q15878 1-2270 isoform Q15878-3): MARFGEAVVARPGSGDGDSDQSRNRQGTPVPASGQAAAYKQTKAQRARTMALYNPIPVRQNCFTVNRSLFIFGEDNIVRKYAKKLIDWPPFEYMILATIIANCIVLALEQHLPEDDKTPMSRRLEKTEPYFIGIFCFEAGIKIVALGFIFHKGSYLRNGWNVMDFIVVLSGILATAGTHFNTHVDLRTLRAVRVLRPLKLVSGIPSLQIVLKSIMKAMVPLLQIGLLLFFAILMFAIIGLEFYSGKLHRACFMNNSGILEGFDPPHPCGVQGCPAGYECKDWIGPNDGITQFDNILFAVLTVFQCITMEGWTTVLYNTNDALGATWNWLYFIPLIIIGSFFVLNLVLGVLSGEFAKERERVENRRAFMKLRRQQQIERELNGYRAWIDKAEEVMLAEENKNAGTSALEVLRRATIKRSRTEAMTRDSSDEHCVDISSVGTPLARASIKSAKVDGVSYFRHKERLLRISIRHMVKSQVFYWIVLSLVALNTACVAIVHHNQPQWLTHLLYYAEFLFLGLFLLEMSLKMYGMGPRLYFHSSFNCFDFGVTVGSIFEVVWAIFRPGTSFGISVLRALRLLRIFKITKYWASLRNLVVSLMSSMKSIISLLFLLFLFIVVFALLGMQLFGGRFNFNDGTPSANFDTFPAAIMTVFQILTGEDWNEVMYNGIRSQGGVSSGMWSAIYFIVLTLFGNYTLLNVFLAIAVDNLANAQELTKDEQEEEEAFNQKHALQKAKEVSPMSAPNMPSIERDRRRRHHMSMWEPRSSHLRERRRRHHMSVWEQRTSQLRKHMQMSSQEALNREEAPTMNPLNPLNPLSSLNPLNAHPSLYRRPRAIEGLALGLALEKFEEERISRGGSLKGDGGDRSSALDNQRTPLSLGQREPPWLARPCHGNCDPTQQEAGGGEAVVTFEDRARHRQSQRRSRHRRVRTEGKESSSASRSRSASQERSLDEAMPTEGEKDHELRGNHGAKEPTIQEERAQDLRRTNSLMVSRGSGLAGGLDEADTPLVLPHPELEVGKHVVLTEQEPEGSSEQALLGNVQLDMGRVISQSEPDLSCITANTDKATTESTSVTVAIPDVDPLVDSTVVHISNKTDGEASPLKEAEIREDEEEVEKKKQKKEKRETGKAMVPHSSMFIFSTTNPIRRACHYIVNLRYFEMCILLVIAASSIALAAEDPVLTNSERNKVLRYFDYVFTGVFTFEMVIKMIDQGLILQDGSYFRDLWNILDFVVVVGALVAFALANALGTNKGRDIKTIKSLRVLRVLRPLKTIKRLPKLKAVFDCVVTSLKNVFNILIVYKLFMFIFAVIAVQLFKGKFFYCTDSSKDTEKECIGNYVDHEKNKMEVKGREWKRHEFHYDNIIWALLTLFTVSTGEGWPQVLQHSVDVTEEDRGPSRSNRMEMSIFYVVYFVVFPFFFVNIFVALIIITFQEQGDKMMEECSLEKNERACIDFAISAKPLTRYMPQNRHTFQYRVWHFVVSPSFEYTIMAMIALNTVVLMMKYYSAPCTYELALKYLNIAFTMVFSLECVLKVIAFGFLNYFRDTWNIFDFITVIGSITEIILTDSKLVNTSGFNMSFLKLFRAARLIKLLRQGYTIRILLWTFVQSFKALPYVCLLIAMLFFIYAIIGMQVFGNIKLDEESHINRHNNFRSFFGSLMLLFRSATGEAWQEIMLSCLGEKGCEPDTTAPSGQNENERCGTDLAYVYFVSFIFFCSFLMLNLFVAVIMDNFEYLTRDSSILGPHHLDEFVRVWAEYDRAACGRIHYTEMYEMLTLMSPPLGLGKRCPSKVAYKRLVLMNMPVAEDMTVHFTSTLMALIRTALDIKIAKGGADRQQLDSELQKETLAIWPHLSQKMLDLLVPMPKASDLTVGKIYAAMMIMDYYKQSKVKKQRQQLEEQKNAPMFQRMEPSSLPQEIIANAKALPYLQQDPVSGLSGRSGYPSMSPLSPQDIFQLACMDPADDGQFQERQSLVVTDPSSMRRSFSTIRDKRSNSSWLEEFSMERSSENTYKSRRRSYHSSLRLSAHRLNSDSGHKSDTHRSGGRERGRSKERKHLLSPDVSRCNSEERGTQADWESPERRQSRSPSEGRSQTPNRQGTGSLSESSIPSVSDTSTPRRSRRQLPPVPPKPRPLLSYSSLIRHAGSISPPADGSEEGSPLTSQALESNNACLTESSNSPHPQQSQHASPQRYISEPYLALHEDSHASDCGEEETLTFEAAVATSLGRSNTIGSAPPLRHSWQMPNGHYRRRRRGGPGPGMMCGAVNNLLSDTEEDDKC
Type: cell-based
Experimental: HEK-293 T-Rex cells were transfected with pcDNA3.1-Kir2.1 to generate a stable cell line. After antibiotic selection, the obtained stable pools were analysed using FLIPR^TETRA(membrane potential assay), and a limiting dilution was performed and a HEK-293 T-Rex/Kir2.1 clone was selected. The clone was transfected with pcDNA3.1-Cav2.3e and pBud-Cav-β4-α2δ1 to generate a stable cell line where the Cav2.3e expression is inducible. After antibiotic selection, functional clone pool analysis and two successive limiting dilutions, the final clone underwent a qPCR analysis and a biophysical and pharmacological validation using patch-clamp.
A compound plate, containing 10 test compounds in eight-points dose response with n=4, was prepared. Test compounds dose response curves were prepared in automated fashion in 100% DMSO at CyBio Felix and starting from a stock solution in 100% DMSO; a defined volume was serially moved into destination wells pre-filled with the desired DMSO volume; stock solution concentration volumes were dependent on the final compounds concentrations to be tested and the final DMSO content used in the assay. For the assay test compounds dose response curves ranged from 30 μM and half log dilution with 0.3% final DMSO. In order to obtain the 8-points dose response curve all the concentrations were created by starting from a 10 mM DMSO stock solution and then moving 9.5 μL into a destination well pre-filled with 20.5 μL of 100% DMSO and repeating this step seven times. This initial step was done into 96 MTP plates, 10 compounds/plate. One 384 MTP was then reformatted to contain all the 10 compounds at 8 concentrations, quadruplicate data points. This so obtained 384 MTP compound plate served as source plate in a “mother to child” process with a CyBi®-Well dispenser in which 0.7 μL of compounds were moved into a destination plate pre-filled with 57.6 μL of Tyrode's buffer 0 mM K^+, thus obtaining 4× concentrated compounds solution. In columns 1-2 and 23-24 the control wells were added. Both “source” compound plate and “destination” compound plate were barcoded and a relationship between the two plates was thus generated.
The day before the experiment, cells were detached by gentle wash with DPBS, followed by 5 min incubation at 37° C. with Trypsin solution. Detached cells were diluted with OptiMEM+Doxycycline at 0.2 μg/mL, counted and plated in Poly-D-Lysine coated black/clear bottom (15.000 c/well in 20 μl/well) by the use of a MATRIX WellMate dispenser. Plates were placed into a humidified incubator at 37° C. with 5% CO2 until the experimental day. 24 h after seeding 10 μL/well of 1.5× Fluo8 NW dye solution prepared in Tyrode's buffer 0 mM K^+ were added on top of the seeding medium. Cell plates were incubated for 40-60 min at RT in the dark. We then Injected off-line 10 μL/well of test compounds and controls 4× concentrated in Tyrode's Buffer 0 mM K+ with the CyBi®-Well instrument. Cell plates were incubated 3 minutes at RT. Finally, we injected 20 μL/well of 3× concentrated activator solution (K20-Na130-Ca2 buffer: 20 mM KCl, 130 mM NaCl, 2 mM CaCl2, 10 mM HEPES, 10 mM Glucose, final concentrations, prepared starting from “K0-Na150-Ca2” and “K150-Na0-Ca2” buffers) at FDSS7000EX instrument and read emitted fluorescence for 130 seconds.
Data analysis was performed with Genedata Screener® software and reported compounds activity as % effect in relation to the normalization standards. The Kinetic Response Value (KRV) is calculated as follows:
KRV=Maximal fluorescence recorded from second 5 to second 130 minus baseline fluorescence, computed as average from second 1 to second 2, of the kinetic trace. The KRV was normalized versus Neutral Controls and Inhibitor Controls in order to obtain the Activity[%] for each well. […] Therefore, the compound activity values were scaled (based on the two references) to a common range (two-point normalization). […]
`CC(C)C(=O)N1CCCc2cc(S(=O)(=O)N(C)[C@@H](C)c3ccccc3)ccc2C1` [Example 35, (S)-2-Isobutyryl-N-methyl-N-(1-phenylethyl)-2,3,4,5-tetrahydro-1H-benzo[c]azepine-7-sulfonamide] gave an IC50 of 3160 nM.
Compound `CCN([C@@H](C)c1ccc(F)cc1)S(=O)(=O)c1ccc2c(n1)CCN(C(=O)C1CC1)C2` [Example 33, (S)-6-(cyclopropanecarbonyl)-N-ethyl-N-(1-(4-fluorophenyl)ethyl)-5,6,7,8-tetrahydro-1,6-naphthyridine-2-sulfonamide] has an IC50 of 3630 nM.
`CCN([C@@H](C)c1ccc(F)cc1)S(=O)(=O)c1ccc2c(c1)CCN(C(=O)C(C)C)C2` [Example 24, (S)-N-ethyl-N-(1-(4-fluorophenyl)ethyl)-2-isobutyryl-1,2,3,4-tetrahydroisoquinoline-6-sulfonamide] gave an IC50 of 1740 nM.
Work on `CC(C)C(=O)N1CCc2ccc(S(=O)(=O)N(C)C(c3ccc(F)cc3)C(F)(F)F)cc2C1` (stereo not shown) [Example 8, 2-isobutyryl-N-methyl-N-(2,2,2-trifluoro-1-(4-fluorophenyl)ethyl)-1,2,3,4-tetrahydroisoquinoline-7-sulfonamide] yielded an IC50 of 1070 nM.
`CCN([C@H](C)c1ccccc1)S(=O)(=O)c1ccc2c(c1)CCN(C(=O)C(C)C)C2` [Example 26, (R)-N-ethyl-2-isobutyryl-N-(1-phenylethyl)-1,2,3,4-tetrahydroisoquinoline-6-sulfonamide] was tested, and the IC50 was 4170 nM.
`CCN([C@@H](C)c1ccc(C(F)(F)F)cc1)S(=O)(=O)c1ccc2c(c1)CCN(C(=O)C1CC1)C2` [Example 21, (S)-2-(cyclopropanecarbonyl)-N-ethyl-N-(1-(4-(trifluoromethyl)phenyl)ethyl)-1,2,3,4-tetrahydroisoquinoline-6-sulfonamide] showed an IC50 of 3980 nM.
With `CC(C)C(=O)N1CCc2ccc(S(=O)(=O)N(C)[C@@H](C)c3ccc(F)cc3)cc2C1` [Example 11, (S)-N-(1-(4-fluorophenyl)ethyl)-2-isobutyryl-N-methyl-1,2,3,4-tetrahydroisoquinoline-7-sulfonamide] the IC50 was 851 nM.
`CCN([C@H](C)c1ccccc1)S(=O)(=O)c1ccc2c(c1)CCN(C(=O)C1CC1)C2` [Example 27, (R)-2-(cyclopropanecarbonyl)-N-ethyl-N-(1-phenylethyl)-1,2,3,4-tetrahydroisoquinoline-6-sulfonamide] gave an IC50 of 3630 nM.
In the case of `CCN([C@@H](C)c1ccc(F)cc1)S(=O)(=O)c1ccc2c(c1)CN(C(=O)C(C)(C)F)CC2` [Example 19, (S)-N-ethyl-2-(2-fluoro-2-methylpropanoyl)-N-(1-(4-fluorophenyl)ethyl)-1,2,3,4-tetrahydroisoquinoline-7-sulfonamide], the IC50 is reported as 575 nM.
`CCN(C(c1ccc(F)cc1)C(F)(F)F)S(=O)(=O)c1ccc2c(c1)CN(C(=O)C1CC1)CC2` (stereo not shown) [Example 46, 2-(Cyclopropanecarbonyl)-N-ethyl-N-(2,2,2-trifluoro-1-(4-fluorophenyl)ethyl)-1,2,3,4-tetrahydroisoquinoline-7-sulfonamide] was tested, and the IC50 was 316 nM.
Compound `CCN([C@@H](C)c1ccc(F)cc1)S(=O)(=O)c1cnc2c(c1)CCN(C(=O)C1CC1)C2` [Example 32, (S)-7-(cyclopropanecarbonyl)-N-ethyl-N-(1-(4-fluorophenyl)ethyl)-5,6,7,8-tetrahydro-1,7-naphthyridine-3-sulfonamide] has an IC50 of 2290 nM.
Work on `CC(C)C(=O)N1CCc2ccc(S(=O)(=O)N(C)[C@@H](c3ccc(F)cc3)C(F)(F)F)cc2C1` [Example 10, (S)-2-isobutyryl-N-methyl-N-(2,2,2-trifluoro-1-(4-fluorophenyl)ethyl)-1,2,3,4-tetrahydroisoquinoline-7-sulfonamide] yielded an IC50 of 3720 nM.
For `CCN(C(c1ccc(F)cc1)C(F)(F)F)S(=O)(=O)c1ccc2c(c1)CN(C1COC1)CC2` (stereo not shown) [Example 45, N-ethyl-2-(oxetan-3-yl)-N-(2,2,2-trifluoro-1-(4-fluorophenyl)ethyl)-1,2,3,4-tetrahydroisoquinoline-7-sulfonamide], the IC50 was 525 nM.
`CCN([C@@H](C)c1ccc(F)cc1)S(=O)(=O)c1ccc2c(c1)C(C)(C)CN(C(=O)C1CC1)C2` [Example 23, (S)-2-(cyclopropanecarbonyl)-N-ethyl-N-(1-(4-fluorophenyl)ethyl)-4,4-dimethyl-1,2,3,4-tetrahydroisoquinoline-6-sulfonamide] showed an IC50 of 2140 nM.
With `CCN([C@@H](C)c1ccc(F)cc1)S(=O)(=O)c1cc2c(cn1)CN(C(=O)C1CC1)CC2` [Example 34, (S)-7-(cyclopropanecarbonyl)-N-ethyl-N-(1-(4-fluorophenyl)ethyl)-5,6,7,8-tetrahydro-2,7-naphthyridine-3-sulfonamide] the IC50 was 3020 nM.
For `CC(C)C(=O)N1CCc2ccc(S(=O)(=O)NCC(C)c3ccc(F)cc3)cc2C1` (single isomer, unassigned) [Example 17, N-(2-(4-fluorophenyl)propyl)-2-isobutyryl-1,2,3,4-tetrahydroisoquinoline-7-sulfonamide], the IC50 was 6170 nM.
`CCN(C(c1ccc(F)cc1)C(F)(F)F)S(=O)(=O)c1ccc2c(c1)CN(C(=O)C(C)(C)F)CC2` (stereo not shown) [Example 18, N-ethyl-2-(2-fluoro-2-methylpropanoyl)-N-(2,2,2-trifluoro-1-(4-fluorophenyl)ethyl)-1,2,3,4-tetrahydroisoquinoline-7-sulfonamide] was tested, and the IC50 was 1100 nM.
`CCN([C@@H](C)c1ccc(F)cc1)S(=O)(=O)c1cc(F)c2c(c1)CCN(C(=O)C1CC1)C2` [Example 22, (S)-2-(cyclopropanecarbonyl)-N-ethyl-8-fluoro-N-(1-(4-fluorophenyl)ethyl)-1,2,3,4-tetrahydroisoquinoline-6-sulfonamide] showed an IC50 of 955 nM.
For `CC(C)C(=O)N1CCc2ccc(S(=O)(=O)N(C)C3(c4ccc(F)cc4)COC3)cc2C1` [Example 29, N-(3-(4-fluorophenyl)oxetan-3-yl)-2-isobutyryl-N-methyl-1,2,3,4-tetrahydroisoquinoline-7-sulfonamide], the IC50 was 7080 nM.

Source: patent US20250136552A1, “ANTAGONISTS OF CAV 2.3” (LARIO THERAPEUTICS LIMITED, priority 2021, published 2025)
